Laboratory results from patent US20250195464A1, “ALOTAKETAL COMPOUNDS AND DERIVATIVES THEREOF FOR USE AS ANTIVIRAL AGENTS” (priority 2022, published 2025).
Read-outs that look alike come from different tables or passages of the source.

Key:
[1] = Cytotoxicity assay, PrestoBlue cell viability; type: cell-based; details: human; concentration required to reduce cell viability by 50%, Calu-3 cells, 48-hr incubation
Description: Calu-3 cells were seeded with 10^4 cells/well in 96-well plates. Twenty-four hr after seeding media was aspirated and serially diluted compounds (described above) were added for an additional 48-hr. incubation. Cellular viability was assessed with Presto Blue Cell Viability Assay™ (Thermo Fisher Scientific™) according to the manufacturer's instructions. Cells were incubated with 5% PrestoBlue™ reagent for 2 hr before reading on the SpectraMax Gemini™ XS spectrofluorometer (Molecular Devices, LLC.™) set at excitation and emission wavelengths of 555 and 585 nm, respectively. Cellular viability was expressed relative (%) to vehicle-treated cells. Data are from at least three independent experiments.

[2] = system: SARS-CoV-2 Omicron BA.1; assay: microbe, parasite or virus in culture; type: cell-based; details: for SI (selectivity index): CC50 / EC50 BA.1; for inhibition of SARS-CoV-2 Omicron, dsRNA and nucleocapsids as indicators of viral load: Omicron BA.1, at the concentrations tested; for potency compared with Alotaketal C: dependence on R4 chirality
[3] = system: mNG-SARS-CoV-2; type: cell-based; details: Huh7.5.1 cells pretreated 3 hours with serial dilutions
[4] = system: mNG-SARS-CoV-2; assay: microbe, parasite or virus in culture
[5] = system: SARS-CoV-2 Omicron BA.5; assay: microbe, parasite or virus in culture; type: cell-based; details: Severe acute respiratory syndrome coronavirus 2, Calu-3 cells
[6] = system: proteins Kinase C (PKC); details: Wang 2016; cited from earlier work
[7] = system: SARS-CoV-2 Delta B.1.617.2; assay: microbe, parasite or virus in culture; type: cell-based
[8] = system: SARS-CoV-2 VIDO; assay: SARS-CoV-2 VIDO infection of Calu-3 cells, nucleocapsid and dsRNA staining; type: cell-based; details: Severe acute respiratory syndrome coronavirus 2, 3 hr pretreatment
[9] = system: SARS-CoV-2 Omicron BA.2; assay: microbe, parasite or virus in culture; type: cell-based; details: Severe acute respiratory syndrome coronavirus 2, Calu-3 cells
[10] = system: mNG-SARS-CoV-2; assay: in vitro; details: human
[11] = Severe acute respiratory syndrome coronavirus 2, Calu-3, read-out: EC50 BA.1

| Compound | CC50 at 48 h [1] [µM] | SARS-COV-2 Activity [2] | SI (selectivity index) [2] | inhibition of SARS-CoV-2 Omicron, dsRNA and nucleocapsids as indicators of viral load ([2]; Calu-3 cells) | EC50 [2, 11] [nM] | potency compared with Alotaketal C [2] | also measured |
| --- | --- | --- | --- | --- | --- | --- | --- |
| CCCCCCCCCC[C@@H]1CCC[C@]2(C=C(CO)[C@H]3CC(=O)C(C)=C[C@H]3O2)O1 [Compound I10-Dec02, (2S,4aR,6′R,8aR)-4-(hydroxymethyl)-7-methyl-6′-decyl-3′,4a,4′,5′,6′,8a-hexahydrospiro [chromene-2, 2′-pyran]-6 (5H)-one] | 74.3 | yes | 297.2 | good inhibition | 250 |  |  |
| CCCCCCCCCC[C@H]1CCC[C@]2(C=C(CO)[C@H]3CC(=O)C(C)=C[C@H]3O2)O1 [Compound I10-Dec01, (2S,4aR,6'S,8aR)-4-(hydroxymethyl)-7-methyl-6′-decyl-3′,4a,4′,5′,6′,8a-hexahydrospiro[chromene-2,2′-pyran]-6(5H)-one] | ≥ 339 | no |  | no inhibition activity |  | decreased |  |
| CCCCCCCC[C@@H]1CCC[C@]2(C=C(CO)[C@H]3CC(=O)C(C)=C[C@H]3O2)O1 [Compound I10-Oct, (2S,4aR,6′R,8aR)-4-(hydroxymethyl)-7-methyl-6′-octyl-3′,4a,4′,5′,6′,8a-hexahydrospiro[chromene-2,2′-pyran]-6(5H)-one] | ≥ 101 | yes | 100.6 | good inhibition | 1000 |  |  |
| CC1=C[C@H]2O[C@]3(C=C(CO)[C@H]2CC1=O)CCCCO3 [Compound I10-H, (2S,4aR,8aR)-4-(hydroxymethyl)-7-methyl-3′,4a,4′,5′,6′,8a-hexahydrospiro[chromene-2,2′-pyran]-6(5H)-one] | ≥ 100 | no |  | no inhibition activity |  | decreased |  |
| CC(C)C[C@H](NC(=O)OCc1ccccc1)C(=O)N[C@@H](C[C@@H]1CCNC1=O)C(O)S(=O)(=O)[O-].[Na+] (stereo partly drawn) [GC376] |  |  |  |  |  |  | reduction of mNG-SARS-CoV-2 infection [3]: dose-dependent reduction |
| CC(C)=CCC(C)CCCC1CCC[C@]2(C=C(CO)[C@H]3CC(=O)C(C)=C[C@H]3O2)O1 (stereo in doubt) [Compound I10-Cit4, (2S,4aR,6'S,8aR)-6′-(4,7-dimethyloct-6-en-1-yl)-4-(hydroxymethyl)-7-methyl-3′,4a,4′,5′,6′,8a-hexahydrospiro[chromene-2,2′-pyran]-6(5H)-one] | ≥ 12700 | yes | 50872 | good inhibition | 250 |  |  |
| CC(=O)O[C@]1(C)C[C@@H](/C=C(\C)CCC=C(C)C)O[C@@]2(C=C(CO)[C@H]3CC(=O)C(C)=C[C@H]3O2)C1 [Alotaketal C] | ≥ 100 | yes | 181.8 |  | 550 |  | EC50 ([4]; Severe acute respiratory syndrome coronavirus 2, Calu-3, read-out: EC50, inhibition of mNG-SARS-CoV-2 infection): 110 nM; EC50 ([4]; Severe acute respiratory syndrome coronavirus 2, Calu-3, read-out: EC50, secondary screening of hits): 80 nM; inhibition at 50 µM ([4]; Severe acute respiratory syndrome coronavirus 2, Calu-3, read-out: inhibition of SARS-CoV-2 infection): 90.6%; EC50 ([5]; dsRNA marker, read-out: dsRNA (EC50), Omicron BA.5): 700 nM; EC50 ([5]; nucleocapsid marker, read-out: Nucleocapsid (EC50), Omicron BA.5): 300 nM; activation of protein kinase C [6]: activates; EC50 ([7]; Calu-3 cells, dsRNA marker, read-out: dsRNA (EC50), Delta B.1.617.2): 3.9 µM; EC50 ([7]; Calu-3 cells, nucleocapsid marker, read-out: Nucleocapsid (EC50), Delta B.1.617.2): 4.9 µM; EC50 ([7]; Severe acute respiratory syndrome coronavirus 2, Calu-3, Calu-3 cells, dsRNA marker, read-out: dsRNA (EC50), Delta B.1.617.2): 3.96 µM; EC50 ([7]; Severe acute respiratory syndrome coronavirus 2, Calu-3, Calu-3 cells, nucleocapsid marker, read-out: Nucleocapsid (EC50), Delta B.1.617.2): 4.89 µM; EC50 ([8]; dsRNA marker, read-out: dsRNA EC50, VIDO): 1330 nM; EC50 ([8]; nucleocapsid marker, read-out: Nucleocapsid EC50, VIDO): 1440 nM; EC50 ([9]; dsRNA marker, read-out: dsRNA (EC50), Omicron BA.2): 700 nM; EC50 ([9]; nucleocapsid marker, read-out: Nucleocapsid (EC50), Omicron BA.2): 700 nM; selectivity ratio [10]: 850; EC50 ([2]; Severe acute respiratory syndrome coronavirus 2, Calu-3 cells, dsRNA marker, read-out: dsRNA (EC50), Omicron BA.1): 400 nM; EC50 ([2]; Severe acute respiratory syndrome coronavirus 2, Calu-3 cells, nucleocapsid marker, read-out: Nucleocapsid (EC50), Omicron BA.1): 700 nM |
| CC(C)=CCC(C)CCCC1CCC[C@]2(C=C(CO)[C@H]3CC(=O)C(C)=C[C@H]3O2)O1 (stereo in doubt) [Compound I10-Cit3, (2S,4aR,6′R,8aR)-6′-(4,7-dimethyloct-6-en-1-yl)-4-(hydroxymethyl)-7-methyl-3′,4a,4′,5′,6′,8a-hexahydrospiro[chromene-2,2′-pyran]-6(5H)-one] | ≥ 100 | no |  | no inhibition activity |  | decreased |  |
| CCCCCCCCCCCC[C@@H]1CCC[C@]2(C=C(CO)[C@H]3CC(=O)C(C)=C[C@H]3O2)O1 [Compound I10-DD2, (2S,4aR,6′R,8aR)-4-(hydroxymethyl)-7-methyl-6′-dodecyl-3′,4a,4′,5′,6′,8a-hexahydrospiro[chromene-2,2′-pyran]-6(5H)-one] | ≥ 113 | yes | 56.7 | good inhibition | 2000 |  |  |
